Assay results published in patent USRE38117E1, “Trioxane dimer compound having antiproliferative and antitumor activities” (Hauser, Inc., priority 1995, dated 2003).

Assays:
Assay type in all cases: cell-based
HL-60(TB) = experiment: NCI 60 cell line screen (SRB), Leukemia; conditions: HL-60(TB) (Leukemia)
EKVX = experiment: NCI 60 cell line screen (SRB), Non-Small Cell Lung Cancer
HOP-92 = experiment: as above; conditions: HOP-92 (Non-Small Cell Lung Cancer)
NCI-H23 = experiment: as above
NCI-H460 = experiment: as above
HCC-2998 = experiment: NCI 60 cell line screen (SRB), Colon Cancer; conditions: HCC-2998 (Colon Cancer)
HCT-15 = experiment: NCI 60 cell line screen (SRB), Colon Cancer; conditions: HCT-15 (Colon Cancer)
SF-539 = experiment: NCI 60 cell line screen (SRB), CNS Cancer; conditions: SF-539 (CNS Cancer)
SNB-19 = experiment: NCI 60 cell line screen (SRB), CNS Cancer; conditions: SNB-19 (CNS Cancer)
LOX IMVI = experiment: NCI 60 cell line screen (SRB), Melanoma
MALME-3M = experiment: NCI 60 cell line screen (SRB), Melanoma; conditions: MALME-3M (Melanoma)
SK-MEL-2 = experiment: NCI 60 cell line screen (SRB), Melanoma; conditions: SK-MEL-2 (Melanoma)
UACC-257 = experiment: NCI 60 cell line screen (SRB), Melanoma; conditions: UACC-257 (Melanoma)
IGROVI = experiment: NCI 60 cell line screen (SRB), Ovarian Cancer
OVCAR-3 = experiment: NCI 60 cell line screen (SRB), Ovarian Cancer; conditions: OVCAR-3 (Ovarian Cancer)
OVCAR-8 = experiment: NCI 60 cell line screen (SRB), Ovarian Cancer; conditions: OVCAR-8 (Ovarian Cancer)
SK-OV-3 = experiment: NCI 60 cell line screen (SRB), Ovarian Cancer; conditions: SK-OV-3 (Ovarian Cancer)
ACHN = experiment: NCI 60 cell line screen (SRB), Renal Cancer
RXF 393 = experiment: NCI 60 cell line screen (SRB), Renal Cancer; conditions: RXF 393 (Renal Cancer)
SN12C = experiment: NCI 60 cell line screen (SRB), Renal Cancer
TK-10 = experiment: NCI 60 cell line screen (SRB), Renal Cancer; conditions: TK-10 (Renal Cancer)
MCF7 = experiment: NCI 60 cell line screen (SRB), Breast Cancer
MCF7/ADR-RES = experiment: NCI 60 cell line screen (SRB), Breast Cancer
MDA-MB231/ATCC = experiment: NCI 60 cell line screen (SRB), Breast Cancer
HS 578T = experiment: NCI 60 cell line screen (SRB), Breast Cancer; conditions: HS 578T (Breast Cancer)
BT-549 = experiment: NCI 60 cell line screen (SRB), Breast Cancer; conditions: BT-549 (Breast Cancer)
60 cell line panel = experiment: NCI 60 cell line screen, values over the whole panel; conditions: mean value over the cell line panel
[1] = test system: murine keratinocyte cell line PE; experiment: Growth inhibition of PE cells (MTT assay); conditions: murine keratinocytes, FIGS. 1-9
Description: To determine the inhibitory effect of the trioxane dimers of the present invention on cell proliferation, screening assays were performed on a murine keratinocyte cell line PE. […] PE cell culture medium consisted of Eagle's minimal essential medium without calcium chloride (Whittaker Bioproducts, Walkersville, Ma.) supplemented with 8% chelexed fetal calf serum and 1% antibiotic-antimycotic (Gibco BRL) and the addition of CaCl2 to 0.05 mM Ca^++. […] (St. Louis, Mo.), and TPA was supplied by L. C. Services (Woburn, Ma.). L-[^14C]ornithine ([…]) was from Amersham/Searle Corp. (Arlington Heights, Ill.). Chemical solvents used in all assays of biological activity were of the highest grade commercially available. Growth Inhibition. […] A mitochondrial dehydrogenase reduces MTT to a blue formazan product with an absorbance maximum of 505 nm in DMSO; the number of viable cells can thus be determined spectrophotometrically. PE cells were seeded at a density of 5,000 cells/well in 50 μL of medium into 96-well microtiter plates. […] The plates were fed once at 48 h, with the readdition of the vitamin D3 analogs at this time. […] After 4 h, the MTT was removed and DMSO added to dissolve the blue formazan dye. Using a microtiter plate reader, the […] was then determined and cell number calculated from blank-subtracted absorbance values.

Structure (SMILES): COC1OC2(C)CCC3CCCC(CCOC(=O)c4cccc(C(=O)OCCC5CCCC6CCC7(C)OOC56C(OC)O7)c4)C31OO2 (centres unmarked) [Compound 10, Trioxane Bis-ester Dimer]
- Log10GI50 (HL-60(TB)): −7.21 M
- Log10LC50 (HL-60(TB)): >−4.30 M
- Log10TGI (HL-60(TB)): −6.56 M
- Log10GI50 (EKVX): −5.31 M
- Log10LC50 (EKVX): >−4.30 M
- Log10TGI (EKVX): >−4.30 M
- Log10GI50 (HOP-92): −6.01 M
- Log10LC50 (HOP-92): >−4.30 M
- Log10TGI (HOP-92): −4.64 M
- Log10GI50 (NCI-H23): −6.29 M
- Log10LC50 (NCI-H23): >−4.30 M
- Log10TGI (NCI-H23): >−4.30 M
- Log10GI50 (NCI-H460): −5.76 M
- Log10LC50 (NCI-H460): >−4.30 M
- Log10TGI (NCI-H460): >−4.30 M
- Log10GI50 (HCC-2998): −5.32 M
- Log10LC50 (HCC-2998): >−4.30 M
- Log10TGI (HCC-2998): >−4.30 M
- Log10GI50 (HCT-15): −6.14 M
- Log10LC50 (HCT-15): >−4.30 M
- Log10TGI (HCT-15): >−4.30 M
- Log10GI50 (SF-539): −6.11 M
- Log10LC50 (SF-539): >−4.30 M
- Log10TGI (SF-539): >−4.30 M
- Log10GI50 (SNB-19): >−4.30 M
- Log10LC50 (SNB-19): >−4.30 M
- Log10TGI (SNB-19): >−4.30 M
- Log10GI50 (LOX IMVI): −6.27 M
- Log10LC50 (LOX IMVI): >−4.30 M
- Log10TGI (LOX IMVI): >−4.30 M
- Log10GI50 (MALME-3M): −5.56 M
- Log10LC50 (MALME-3M): >−4.30 M
- Log10TGI (MALME-3M): >−4.30 M
- Log10GI50 (SK-MEL-2): −5.47 M
- Log10LC50 (SK-MEL-2): >−4.30 M
- Log10TGI (SK-MEL-2): >−4.30 M
- Log10GI50 (UACC-257): −5.03 M
- Log10LC50 (UACC-257): >−4.30 M
- Log10TGI (UACC-257): >−4.30 M
- Log10GI50 (IGROVI): −5.34 M
- Log10LC50 (IGROVI): >−4.30 M
- Log10TGI (IGROVI): −4.42 M
- Log10GI50 (OVCAR-3): −5.53 M
- Log10LC50 (OVCAR-3): >−4.30 M
- Log10TGI (OVCAR-3): >−4.30 M
- Log10GI50 (OVCAR-8): −6.13 M
- Log10LC50 (OVCAR-8): >−4.30 M
- Log10TGI (OVCAR-8): >−4.30 M
- Log10LC50 (SK-OV-3): >−4.30 M
- Log10TGI (SK-OV-3): >−4.30 M
- Log10GI50 (ACHN): −5.85 M
- Log10LC50 (ACHN): >−4.30 M
- Log10TGI (ACHN): >−4.30 M
- Log10GI50 (RXF 393): >−4.30 M
- Log10LC50 (RXF 393): >−4.30 M
- Log10TGI (RXF 393): >−4.30 M
- Log10GI50 (SN12C): −5.73 M
- Log10LC50 (SN12C): >−4.30 M
- Log10TGI (SN12C): >−4.30 M
- Log10GI50 (TK-10): −5.39 M
- Log10LC50 (TK-10): >−4.30 M
- Log10TGI (TK-10): >−4.30 M
- Log10GI50 (MCF7): −5.92 M
- Log10LC50 (MCF7): >−4.30 M
- Log10TGI (MCF7): >−4.30 M
- Log10GI50 (MCF7/ADR-RES): −5.36 M
- Log10LC50 (MCF7/ADR-RES): >−4.30 M
- Log10TGI (MCF7/ADR-RES): >−4.0 M
- Log10GI50 (MDA-MB231/ATCC): −5.27 M
- Log10LC50 (MDA-MB231/ATCC): >−4.30 M
- Log10TGI (MDA-MB231/ATCC): >−4.30 M
- Log10GI50 (HS 578T): −6.07 M
- Log10LC50 (HS 578T): >−4.30 M
- Log10TGI (HS 578T): >−4.30 M
- Log10GI50 (BT-549): −5.47 M
- Log10LC50 (BT-549): >−4.30 M
- Log10TGI (BT-549): >−4.30 M
- Log10GI50 MG MID (60 cell line panel): −5.77 M
- Log10LC50 MG MID (60 cell line panel): −4.30 M
- Log10TGI MG MID (60 cell line panel): −4.52 M
- antiproliferative activity [1]: high antiproliferative activity

Structure (SMILES): COC1OC2(C)CCC3CCCC(CCOC(=O)c4ccc(C(=O)OCCC5CCCC6CCC7(C)OOC56C(OC)O7)cc4)C31OO2 (centres unmarked) [Compound 11, Bis-ester Dimer]
- Log10GI50 (HL-60(TB)): −7.42 M
- Log10LC50 (HL-60(TB)): −5.26 M
- Log10TGI (HL-60(TB)): −6.58 M
- Log10GI50 (EKVX): −5.20 M
- Log10LC50 (EKVX): >−4.00 M
- Log10TGI (EKVX): >−4.00 M
- Log10GI50 (HOP-92): −4.91 M
- Log10LC50 (HOP-92): >−4.00 M
- Log10TGI (HOP-92): >−4.00 M
- Log10GI50 (NCI-H23): −6.03 M
- Log10LC50 (NCI-H23): >−4.00 M
- Log10TGI (NCI-H23): −4.19 M
- Log10GI50 (NCI-H460): −6.02 M
- Log10LC50 (NCI-H460): >−4.00 M
- Log10TGI (NCI-H460): >−4.00 M
- Log10GI50 (HCC-2998): −4.56 M
- Log10LC50 (HCC-2998): >−4.00 M
- Log10TGI (HCC-2998): >−4.00 M
- Log10GI50 (HCT-15): −6.12 M
- Log10LC50 (HCT-15): >−4.00 M
- Log10TGI (HCT-15): >−4.00 M
- Log10LC50 (SF-539): >−4.00 M
- Log10GI50 (SNB-19): −5.31 M
- Log10LC50 (SNB-19): >−4.00 M
- Log10TGI (SNB-19): >−4.00 M
- Log10GI50 (LOX IMVI): −6.28 M
- Log10LC50 (LOX IMVI): >−4.00 M
- Log10TGI (LOX IMVI): >−4.00 M
- Log10GI50 (MALME-3M): −5.03 M
- Log10LC50 (MALME-3M): >−4.00 M
- Log10TGI (MALME-3M): >−4.00 M
- Log10GI50 (SK-MEL-2): −5.47 M
- Log10LC50 (SK-MEL-2): >−4.00 M
- Log10TGI (SK-MEL-2): −5.04 M
- Log10GI50 (UACC-257): −5.36 M
- Log10LC50 (UACC-257): >−4.00 M
- Log10TGI (UACC-257): >−4.00 M
- Log10GI50 (IGROVI): −4.95 M
- Log10LC50 (IGROVI): >−4.00 M
- Log10TGI (IGROVI): >−4.00 M
- Log10GI50 (OVCAR-3): −5.63 M
- Log10LC50 (OVCAR-3): >−4.00 M
- Log10TGI (OVCAR-3): >−4.00 M
- Log10GI50 (OVCAR-8): −6.03 M
- Log10LC50 (OVCAR-8): >−4.00 M
- Log10TGI (OVCAR-8): >−4.00 M
- Log10GI50 (SK-OV-3): −5.28 M
- Log10LC50 (SK-OV-3): >−4.00 M
- Log10TGI (SK-OV-3): >−4.00 M
- Log10GI50 (ACHN): −5.42 M
- Log10LC50 (ACHN): >−4.00 M
- Log10TGI (ACHN): >−4.00 M
- Log10GI50 (SN12C): −5.46 M
- Log10LC50 (SN12C): >−4.00 M
- Log10TGI (SN12C): >−4.00 M
- Log10GI50 (TK-10): −5.06 M
- Log10LC50 (TK-10): >−4.00 M
- Log10TGI (TK-10): >−4.00 M
- Log10GI50 (MCF7): −5.86 M
- Log10LC50 (MCF7): >−4.00 M
- Log10TGI (MCF7): >−4.00 M
- Log10GI50 (MCF7/ADR-RES): −5.11 M
- Log10LC50 (MCF7/ADR-RES): >−4.00 M
- Log10TGI (MCF7/ADR-RES): >−4.00 M
- Log10GI50 (MDA-MB231/ATCC): −5.18 M
- Log10LC50 (MDA-MB231/ATCC): >−4.00 M
- Log10TGI (MDA-MB231/ATCC): >−4.00 M
- Log10GI50 (HS 578T): −4.55 M
- Log10LC50 (HS 578T): >−4.00 M
- Log10TGI (HS 578T): >−4.00 M
- Log10GI50 (BT-549): −5.44 M
- Log10LC50 (BT-549): >−4.00 M
- Log10TGI (BT-549): >−4.00 M
- Log10GI50 MG MID (60 cell line panel): −5.59 M
- Log10LC50 MG MID (60 cell line panel): −4.04 M
- Log10TGI MG MID (60 cell line panel): −4.19 M
- antiproliferative activity [1]: high antiproliferative activity
